Laboratory results taken from patent publication US20230278972A1, “SUBSTITUTED HALOALKYL SULFONANILIDE HERBICIDES” (FMC Corporation, priority 2020, published 2023).

Tests used:
Assay type in all cases: in vivo
[1] = tested on: Foxtail, Giant (giant foxtail, Setaria faberi); test: Test A1 preemergence, Foxtail, Giant
Method in brief: (§1)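 Herbicidal response was scored on plants treated either preemergence, by directed spray onto soil of a loam–sand blend after sowing, or postemergence on potted plants at the one- to two-leaf stage, 2–10 cm high. Test chemicals were carried in a non-phytotoxic solvent mix with surfactant.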

[2] = tested on: Oat, Wild (wild oat, Avena fatua); test: Test A1 preemergence, Oat, Wild
Method in brief: as §1

[3] = tested on: ragweed (common ragweed, Ambrosia artemisiifolia); test: Test A1 preemergence, ragweed
Method in brief: as §1

[4] = tested on: Foxtail, Giant (giant foxtail, Setaria faberi); test: Test A1 postemergence, Foxtail, Giant; details: Postemergence
Method in brief: (§2)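 Seeds were first planted into a blend of loam soil and sand and given a preemergence directed soil spray. In parallel, pots of the same soil were sown for postemergence application once plants reached 2 to 10 cm and the one- to two-leaf stage. Both used surfactant-containing non-phytotoxic solvent formulations.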

[5] = tested on: kochia (Bassia scoparia); test: Test A1 postemergence, kochia; details: Postemergence
Method in brief: as §2

[6] = tested on: Pigweed, Palmer (palmer amaranth, palmer pigweed, Amaranthus palmeri); test: Test A1 postemergence, Pigweed, Palmer; details: Postemergence
Method in brief: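 Postemergence species (ragweed, Palmer pigweed, wild oat) were sprayed at one- to two-leaf stage, 2 to 10 cm tall. Corn was treated preemergence by directed soil spray. Both used a loam soil/sand blend and compounds in a non-phytotoxic solvent mixture with surfactant.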

[7] = tested on: wheat (Triticum aestivum); test: Test A1 postemergence, wheat; details: Postemergence
Method in brief: as §2

[8] = tested on: barnyardgrass (Echinochloa crus-galli); test: Test B1 flooded paddy test, barnyardgrass; details: 250 g ai/ha, Flood, applied to paddy water, 2-leaf stage, visually evaluated after 10 to 14 days
Source text: (§3) A dash (-) response means no test result.

[9] = tested on: rice (Oryza sativa); test: Test B1 flooded paddy test, rice; details: 250 g ai/ha, Flood, applied to paddy water, 2-leaf stage, visually evaluated after 10 to 14 days
Source text: as §3

[10] = 31 g ai/ha, 0 to 100 scale (0 no effect, 100 complete control)
[11] = 125 g ai/ha, 0 to 100 scale, 0 no effect, 100 complete control
[12] = 31 g ai/ha, 0 to 100 scale (0 no effect, 100 complete control), 10 days

SMILES | Plant response rating, Foxtail, Giant [1, 10] | Plant response rating, Foxtail, Giant [1, 11] | Plant response rating, Oat, Wild [2, 10] | Plant response rating, Oat, Wild [2, 11] | Plant response rating, Ragweed [3, 10] | Plant response rating, Ragweed [3, 11] | Plant response rating, Foxtail, Giant [4, 12] | Plant response rating, Foxtail, Giant ([4]; 125 g ai/ha, 0 to 100 scale) | Plant response rating, Kochia [5, 12] | Plant response rating, Kochia ([5]; 125 g ai/ha, 0 to 100 scale) | Plant response rating, Pigweed, Palmer [6, 12] | Plant response rating, Pigweed, Palmer ([6]; 125 g ai/ha, 0 to 100 scale) | Plant response rating, Wheat [7, 12] | Plant response rating, Wheat ([7]; 125 g ai/ha, 0 to 100 scale) | Plant response rating, Barnyardgrass (0 to 100 scale, 0 is no effect, 100 is complete control) [8] | Plant response rating, Rice (0 to 100 scale, 0 is no effect, 100 is complete control) [9]
Cc1cc(C)c(C2=NOC3CCCCCC23)cc1NS(=O)(=O)C(F)(F)F (stereo not shown) [Compound 292] | 50 | 100 | 0 | 50 | 10 | 80 | 0 | 30 | 30 | 50 | 0 | 30 | 0 | 70 | 0 | 0
Cc1cc(C)c(N(C(=O)OC(C)C)S(=O)(=O)C(F)(F)F)cc1C1=NOC2CCCC12 (stereo not shown) [Compound 295] | 0 | 40 | 0 | 0 | 0 | 0 | 0 | 10 | 0 | 30 | 0 | 30 | 20 | 70 | 95 | 0
Cc1cc(C)c(C2=NOC3COCC23)cc1NS(=O)(=O)C(F)(F)F (stereo not shown) [Compound 297] | 80 | 100 | 0 | 20 | 20 | 60 | 10 | 60 | 0 | 60 | 10 | 20 | 10 | 80 | 0 | 0
Cc1cc(C)c(N(C(=O)OCC(C)C)S(=O)(=O)C(F)(F)F)cc1C1=NOC2CCCC12 (stereo not shown) [Compound 299] | 0 | 40 | 0 | 20 | 0 | 30 | 0 | 30 | 0 | 20 | 10 | 10 | 30 | 70 | 95 | 0
Cc1cc(C)c(N(COC(=O)C(C)(C)C)S(=O)(=O)C(F)(F)F)cc1C1=NOC2COCC12 (stereo not shown) [Compound 301] | 10 | 90 | 0 | 0 | 0 | 80 | 0 | 60 | 0 | 30 | 0 | 30 | 0 | 60 | 95 | 0
Cc1cc(Br)c(C2=NOC3CCCC23)cc1NS(=O)(=O)C(F)(F)F (stereo not shown) [Compound 302] | 20 | 80 | 0 | 20 | 0 | 30 | 0 | 0 | 10 | 50 | 10 | 40 | 0 | 10 | 0 | 0
Cc1cc(F)c(NS(=O)(=O)C(F)(F)F)cc1C1=NOC2(CCCC2)C1 [Compound 303] | 80 | 100 | 20 | 60 | 0 | 0 | 30 | 80 | 0 | 60 | 0 | 20 | 0 | 50 | 0 | 0
